ChEMBL document CHEMBL1201862, “PubChem BioAssay data set” (2004)
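All cell lines were grown in 96-well plates and treated with compound for 48 hours. The concentration for 50% growth inhibition is given as GI50.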 Active and inactive are the calls of the source. No stated cut-off is given here; in the data, active = GI50 up to about 1.1 µM and inactive = higher.

What was measured:
Assay in all cases: inhibition of tumour cell growth, NCI panel, 48 h
HCT-15 = system: HCT-15
SN12C = system: SN12C
SF-539 = system: SF-539
T47D = system: T47D
DMS-273 = system: DMS-273
EKVX = system: EKVX
UO-31 = system: UO-31
CAKI-1 = system: CAKI-1
SNB-78 = system: SNB-78
NCI-H23 = system: NCI-H23
A498 = system: A498
SK-MEL-5 = system: SK-MEL-5
Malme-3M = system: Malme-3M
HOP-92 = system: HOP-92
HL-60 = system: HL-60
TK-10 = system: TK-10
U-251 = system: U-251
SK-MEL-28 = system: SK-MEL-28
786-0 = system: 786-0
MOLT-4 = system: MOLT-4
KM-20L2 = system: KM-20L2
M14 = system: M14
HOP-18 = system: HOP-18
NCI-H522 = system: NCI-H522
SNB-19 = system: SNB-19
RPMI-8226 = system: RPMI-8226
UACC-257 = system: UACC-257
NCI-H226 = system: NCI-H226
OVCAR-4 = system: OVCAR-4
SF-268 = system: SF-268
NCI-H460 = system: NCI-H460
K562 = system: K562
SNB-75 = system: SNB-75
CCRF-CEM = system: CCRF-CEM
ACHN = system: ACHN
OVCAR-8 = system: OVCAR-8
HT-29 = system: HT-29
SW-620 = system: SW-620
MDA-N = system: MDA-N
DLD-1 = system: DLD-1
LOX IMVI = system: LOX IMVI
IGROV-1 = system: IGROV-1
COLO 205 = system: COLO 205
MDA-MB-435 = system: MDA-MB-435
MDA-MB-231 = system: MDA-MB-231
KM12 = system: KM12
NCI/ADR-RES = system: NCI/ADR-RES
HCC 2998 = system: HCC 2998
Hs-578T = system: Hs-578T
UACC-62 = system: UACC-62
LXFL 529 = system: LXFL 529
OVCAR-5 = system: OVCAR-5
M19-MEL = system: M19-MEL
BT-549 = system: BT-549
HCT-116 = system: HCT-116
OVCAR-3 = system: OVCAR-3
PC-3 = system: PC-3
SK-OV-3 = system: SK-OV-3
SK-MEL-2 = system: SK-MEL-2
HOP-62 = system: HOP-62
A549 = system: A549
SF-295 = system: SF-295
SR = system: SR
RXF 393 = system: RXF 393
DMS-114 = system: DMS-114

NC(CSC(c1ccccc1)(c1ccccc1)c1ccccc1)C(=O)O (centres undefined)
GI50 (HCT-15): 0.925 µM
GI50 (SN12C): 1.27 µM (inactive)
GI50 (SF-539): 0.396 µM (active)
GI50 (T47D): 0.684 µM (active)
GI50 (DMS-273): 0.235 µM (active)
GI50 (EKVX): 1.19 µM (inactive)
GI50 (UO-31): 18.5 µM (inactive)
GI50 (CAKI-1): 4.41 µM (inactive)
GI50 (SNB-78): 2.61 µM (inactive)
GI50 (NCI-H23): 2.29 µM (inactive)
GI50 (A498): 1.51 µM (inactive)
GI50 (SK-MEL-5): 0.69 µM (active)
GI50 (Malme-3M): 2.17 µM (inactive)
GI50 (HOP-92): 7.31 µM (inactive)
GI50 (HL-60): 0.433 µM (active)
GI50 (TK-10): 19.9 µM (inactive)
GI50 (U-251): 0.69 µM (active)
GI50 (SK-MEL-28): 10 µM (inactive)
GI50 (786-0): 0.971 µM (active)
GI50 (MOLT-4): 1.24 µM (inactive)
GI50 (KM-20L2): 1.82 µM (inactive)
GI50 (M14): 0.538 µM (active)
GI50 (HOP-18): 4.14 µM (inactive)
GI50 (NCI-H522): 0.59 µM (active)
GI50 (SNB-19): 1.22 µM (inactive)
GI50 (RPMI-8226): 0.569 µM (active)
GI50 (UACC-257): 1.84 µM (inactive)
GI50 (NCI-H226): 3.59 µM (inactive)
GI50 (OVCAR-4): 7.5 µM (inactive)
GI50 (SF-268): 1.27 µM (inactive)
GI50 (NCI-H460): 0.658 µM (active)
GI50 (K562): 0.509 µM (active)
GI50 (SNB-75): 1.74 µM (inactive)
GI50 (CCRF-CEM): 0.583 µM (active)
GI50 (ACHN): 7.89 µM (inactive)
GI50 (OVCAR-8): 0.904 µM (active)
GI50 (HT-29): 2.94 µM (inactive)
GI50 (SW-620): 0.741 µM (active)
GI50 (MDA-N): 1.08 µM (active)
GI50 (DLD-1): 0.7 µM (active)
GI50 (LOX IMVI): 0.802 µM (active)
GI50 (IGROV-1): 2.12 µM (inactive)
GI50 (COLO 205): 0.665 µM (active)
GI50 (MDA-MB-435): 0.333 µM (active)
GI50 (MDA-MB-231): 1.42 µM (inactive)
GI50 (KM12): 0.962 µM (active)
GI50 (NCI/ADR-RES): 6.67 µM (inactive)
GI50 (HCC 2998): 0.716 µM (active)
GI50 (Hs-578T): 1.61 µM (inactive)
GI50 (UACC-62): 0.685 µM (active)
GI50 (LXFL 529): 7.76 µM (inactive)
GI50 (OVCAR-5): 15.4 µM (inactive)
GI50 (M19-MEL): 3.19 µM (inactive)
GI50 (BT-549): 0.975 µM (active)
GI50 (HCT-116): 0.615 µM (active)
GI50 (OVCAR-3): 1.7 µM (inactive)
GI50 (PC-3): 1.61 µM (inactive)
GI50 (SK-OV-3): 0.634 µM (active)
GI50 (SK-MEL-2): 0.605 µM (active)
GI50 (HOP-62): 1.43 µM (inactive)
GI50 (A549): 0.822 µM (active)

Cc1ccc2nc3c(Cl)c(C)c(=O)cc-3sc2c1
GI50 (DMS-273): 76 µM (inactive)
GI50 (SF-295): 41.2 µM (inactive)
GI50 (UO-31): 52.5 µM (inactive)
GI50 (CAKI-1): > 10 µM (inactive)
GI50 (A498): > 100 µM (inactive)
GI50 (SK-MEL-5): 60.3 µM (inactive)
GI50 (HOP-92): 64 µM (inactive)
GI50 (HL-60): 26.4 µM (inactive)
GI50 (SK-MEL-28): > 10 µM (inactive)
GI50 (MOLT-4): 10.7 µM (inactive)
GI50 (SR): > 10 µM (inactive)
GI50 (HOP-18): > 10 µM (inactive)
GI50 (NCI-H522): 35.3 µM (inactive)
GI50 (RPMI-8226): 23 µM (inactive)
GI50 (K562): 26.9 µM (inactive)
GI50 (CCRF-CEM): 7.18 µM (inactive)
GI50 (OVCAR-8): 51.1 µM (inactive)
GI50 (SW-620): 83.4 µM (inactive)
GI50 (LOX IMVI): 42.1 µM (inactive)
GI50 (RXF 393): 21.5 µM (inactive)
GI50 (IGROV-1): > 10 µM (inactive)
GI50 (COLO 205): > 10 µM (inactive)
GI50 (SK-OV-3): > 10 µM (inactive)
GI50 (A549): 70.5 µM (inactive)

O=C(NC(=O)c1cn(CCN2CCNCC2)c(=O)[nH]c1=O)OCc1ccccc1
GI50 (HCT-15): > 100 µM
GI50 (SN12C): > 100 µM (inactive)
GI50 (SF-539): > 100 µM (inactive)
GI50 (EKVX): > 100 µM (inactive)
GI50 (SF-295): > 100 µM (inactive)
GI50 (DMS-114): 63.5 µM (inactive)
GI50 (CAKI-1): > 100 µM (inactive)
GI50 (SNB-78): > 100 µM (inactive)
GI50 (NCI-H23): > 100 µM (inactive)
GI50 (SK-MEL-5): > 100 µM (inactive)
GI50 (Malme-3M): > 100 µM (inactive)
GI50 (HOP-92): > 100 µM (inactive)
GI50 (HL-60): > 100 µM (inactive)
GI50 (U-251): > 100 µM (inactive)
GI50 (MOLT-4): > 100 µM (inactive)
GI50 (M14): > 100 µM (inactive)
GI50 (SR): > 100 µM (inactive)
GI50 (NCI-H522): > 100 µM (inactive)
GI50 (RPMI-8226): > 100 µM (inactive)
GI50 (NCI-H226): > 100 µM (inactive)
GI50 (OVCAR-4): > 100 µM (inactive)
GI50 (SF-268): > 100 µM (inactive)
GI50 (NCI-H460): > 100 µM (inactive)
GI50 (K562): > 100 µM (inactive)
GI50 (SNB-75): 68.9 µM (inactive)
GI50 (CCRF-CEM): > 100 µM (inactive)
GI50 (ACHN): > 100 µM (inactive)
GI50 (OVCAR-8): > 100 µM (inactive)
GI50 (HT-29): > 100 µM (inactive)
GI50 (SW-620): > 100 µM (inactive)
GI50 (DLD-1): > 100 µM (inactive)
GI50 (LOX IMVI): > 100 µM (inactive)
GI50 (IGROV-1): > 10 µM (inactive)
GI50 (COLO 205): > 100 µM (inactive)
GI50 (KM12): > 100 µM (inactive)
GI50 (UACC-62): > 100 µM (inactive)
GI50 (LXFL 529): > 100 µM (inactive)
GI50 (OVCAR-5): > 100 µM (inactive)
GI50 (M19-MEL): > 100 µM (inactive)
GI50 (HCT-116): > 100 µM (inactive)
GI50 (OVCAR-3): > 100 µM (inactive)
GI50 (SK-OV-3): > 100 µM (inactive)
GI50 (HOP-62): > 100 µM (inactive)
GI50 (A549): > 100 µM (inactive)
